Assay [1] relates to replication of HAdV-5 in HEp-2 cells. Put plainly: Antiviral activity assay, CPE inhibition. The following applies: Human adenovirus sp., HEp-2, read-out: IC50, antiviral activity on the replication of HAdV-5. Format: cell-based. The procedure:
For checking the viral load, the antiviral screening based on the viral yield reduction technique was used. The cytopathic inhibition assay (CPE) utilizes 100 CCID50 loading in 0.1 mL of a monolayer of confluent cells in 96-well plates. After 1 h of virus adsorption, the extract was added in various concentrations, and cells were incubated for 48 h at 37 °C. The viable cells were stained according to the neutral red uptake procedure and the percentage of CPE inhibition for each concentration of the test sample was calculated using the following formula: % CPE = [ODtest sample − ODvirus control]/[ODtoxicity control − ODvirus control] × 100. The concentration of the material inhibition 50% of viral replication when compared to the virus control was defined as the 50% inhibitory concentration (IC50). The ratio CC50/IC50 was calculated to evaluate the selectivity index (SI).

Assay [2] concerns B. cereus. Put plainly: Disc test on agar medium. The following applies: discs, gentamicin disc 10 µg. It counts as cell-based, Bacillus cereus. The procedure: (§1) Initially, the compounds were tested on an agar medium using commercial discs with gentamicin (10 µg) as a standard against B. cereus and P. aeruginosa used as model bacterial strains. As a result, no inhibition zones were observed around the discs with the compounds against both tested strains. With gentamicin, zones (mm in diameter) of 15 mm against B. cereus, and 12 mm against P. aeruginosa, were measured.
(§2) The antibacterial activity of the investigated compounds was tested against Gram-positive Bacillus cereus and Gram-negative Pseudomonas aeruginosa used as model strains (Collection of the Institute of Microbiology, Bulgarian Academy of Sciences). Microbial cultures were maintained at 4 °C on meat-peptone agar (MPA) slants and transferred monthly.

The test system of assay [3] is P. aeruginosa. Put plainly: Disc test on agar medium. It counts as cell-based, Pseudomonas aeruginosa. The following applies: discs, gentamicin disc 10 µg. The procedure: as §1, §2

These results are taken from article PMC9332204, “Study of Novel Peptides for Antimicrobial Protection in Solution and on Cotton Fabric” (Molecules, 2022).

Broadly, the IC50 is the concentration at which inhibition is half-maximal. Turning to `NC(=O)c1ncn([C@@H]2O[C@H](CO)[C@@H](O)[C@H]2O)n1` [Ribavirin], in assay [1], the IC50 was found to be 115 µM.

Regarding `CNC(C)C1CCC(N)C(OC2C(N)CC(N)C(OC3OCC(C)(O)C(NC)C3O)C2O)O1` (stereo not drawn) [gentamicin], the “inhibition zone (mm in diameter)” value in assay [2] was 15 mm; in assay [3], 12 mm.
